Results from EP4635500A1, “THERAPEUTIC AGENT FOR BACTERIAL INFECTION” (Sumitomo Pharma Co., Ltd., priority 2022, dated 2024).
Several values for one entry are separate records, joined by “and”; a condition that tells them apart may be missing. Equal values may be shown once. Read-outs that look alike come from different tables or passages of the source.

Experiments:
A. baumannii = assay: MIC, broth microdilution, CDC/FDA Antibiotic Resistance Isolate Bank (Example 7, Tables 9, 13, 14); assay type: cell-based, Acinetobacter baumannii
P. aeruginosa = assay: MIC, broth microdilution, CDC/FDA Antibiotic Resistance Isolate Bank (Example 7, Tables 10, 15); assay type: cell-based
[1] = 26 metallo-carbapenemase-producing P. aeruginosa strains, β-lactamase inhibitor µg/mL in parentheses
[2] = 96 strains of P. aeruginosa, β-lactamase inhibitor µg/mL in parentheses

colistin
MIC (A. baumannii): 0.5 µg/mL and 1 µg/mL | MIC50 (A. baumannii; 55 isolates of A. baumannii): 1 µg/mL | MIC80 (A. baumannii; 55 isolates of A. baumannii): 2 µg/mL | MIC90 (A. baumannii; 55 isolates of A. baumannii): 2 µg/mL | MIC (A. baumannii; A. baumannii KUB No. 5567, AR Bank #70, OXA-58, OXA-100): 0.25 µg/mL | MIC (A. baumannii; A. baumannii KUB No. 5575, AR Bank #78, OXA-71): 1 µg/mL | MIC (A. baumannii; A. baumannii KUB No. 5580, AR Bank #83, OXA-23, OXA-69, NDM-1): 1 µg/mL | MIC (A. baumannii; A. baumannii KUB No. 5585, AR Bank #88, OXA-64, NDM-1): 1 µg/mL | MIC (A. baumannii; A. baumannii KUB No. 5598, AR Bank #101, OXA-24, OXA-65): 1 µg/mL | MIC (A. baumannii; A. baumannii KUB No. 5599, AR Bank #102, OXA-66): 1 µg/mL | MIC (A. baumannii; A. baumannii KUB No. 5706, AR Bank #273, OXA-23, OXA-66): 1 µg/mL | MIC (A. baumannii; A. baumannii KUB No. 5707, AR Bank #274, OXA-66, OXA-72): 0.5 µg/mL | MIC (A. baumannii; A. baumannii KUB No. 5708, AR Bank #275, OXA-23, OXA-66): 1 µg/mL | MIC (A. baumannii; A. baumannii KUB No. 5709, AR Bank #276, no carbapenemase genes (-)): 2 µg/mL | MIC (A. baumannii; A. baumannii KUB No. 5710, AR Bank #277, OXA-24, OXA-65): 0.5 µg/mL | MIC (A. baumannii; A. baumannii KUB No. 5711, AR Bank #278, OXA-23, OXA-66): 1 µg/mL | MIC (A. baumannii; A. baumannii KUB No. 5712, AR Bank #279, OXA-23, OXA-66): 1 µg/mL | MIC (A. baumannii; A. baumannii KUB No. 5713, AR Bank #280, OXA-66): 1 µg/mL | MIC (A. baumannii; A. baumannii KUB No. 5714, AR Bank #281, OXA-82): 1 µg/mL | MIC (A. baumannii; A. baumannii KUB No. 5715, AR Bank #282, OXA-23, OXA-66): 1 µg/mL | MIC (A. baumannii; A. baumannii KUB No. 5716, AR Bank #283, OXA-23, OXA-66): 1 µg/mL | MIC (A. baumannii; A. baumannii KUB No. 5717, AR Bank #284, OXA-24, OXA-65): 1 µg/mL | MIC (A. baumannii; A. baumannii KUB No. 5718, AR Bank #285, OXA-24, OXA-65): 0.5 µg/mL | MIC (A. baumannii; KUB No. 5719, AR Bank #286): 1 µg/mL | MIC (A. baumannii; KUB No. 5720, AR Bank #287): 1 µg/mL | MIC (A. baumannii; KUB No. 5721, AR Bank #288): >64 µg/mL | MIC (A. baumannii; KUB No. 5722, AR Bank #259): 2 µg/mL | MIC (A. baumannii; KUB No. 5723, AR Bank #290): 1 µg/mL | MIC (A. baumannii; KUB No. 5724, AR Bank #291): 1 µg/mL | MIC (A. baumannii; KUB No. 5725, AR Bank #292): 1 µg/mL | MIC (A. baumannii; KUB No. 5726, AR Bank #293): 1 µg/mL | MIC (A. baumannii; KUB No. 5727, AR Bank #294): 1 µg/mL | MIC (A. baumannii; KUB No. 5728, AR Bank #295): 1 µg/mL | MIC (A. baumannii; KUB No. 5729, AR Bank #296): 2 µg/mL | MIC (A. baumannii; KUB No. 5730, AR Bank #297): 2 µg/mL | MIC (A. baumannii; KUB No. 5731, AR Bank #298): 0.5 µg/mL | MIC (A. baumannii; KUB No. 5732, AR Bank #299): 2 µg/mL | MIC (A. baumannii; KUB No. 5733, AR Bank #300): 1 µg/mL | MIC (A. baumannii; KUB No. 5734, AR Bank #301): 1 µg/mL | MIC (A. baumannii; KUB No. 5735, AR Bank #302): 1 µg/mL | MIC (A. baumannii; KUB No. 5736, AR Bank #303): >64 µg/mL | MIC (A. baumannii; KUB No. 5737, AR Bank #304): 4 µg/mL | MIC (A. baumannii; KUB No. 5738, AR Bank #305): 2 µg/mL | MIC (A. baumannii; KUB No. 5739, AR Bank #306): 1 µg/mL | MIC (A. baumannii; KUB No. 5740, AR Bank #307): 2 µg/mL | MIC (A. baumannii; KUB No. 5741, AR Bank #308): 1 µg/mL | MIC (A. baumannii; KUB No. 5742, AR Bank #309): 2 µg/mL | MIC (A. baumannii; KUB No. 5743, AR Bank #310): 1 µg/mL | MIC (A. baumannii; KUB No. 5744, AR Bank #311): 1 µg/mL | MIC (A. baumannii; KUB No. 5745, AR Bank #312): 1 µg/mL | MIC (A. baumannii; KUB No. 5746, AR Bank #313): 2 µg/mL | MIC against 26 metallo-carbapenemase-producing strains MIC50 (P. aeruginosa; [1]): 1 µg(mL) | MIC against 26 metallo-carbapenemase-producing strains MIC80 (P. aeruginosa; [1]): 1 µg(mL) | MIC against 26 metallo-carbapenemase-producing strains MIC90 (P. aeruginosa; [1]): 1 µg(mL) | MIC against 26 metallo-carbapenemase-producing strains MICrange (P. aeruginosa; [1]): 0.5 - 2 µg(mL) | MIC against 96 strains of P. aeruginosa MIC50 (P. aeruginosa; [2]): 1 µg(mL) | MIC against 96 strains of P. aeruginosa MIC80 (P. aeruginosa; [2]): 1 µg(mL) | MIC against 96 strains of P. aeruginosa MIC90 (P. aeruginosa; [2]): 1 µg(mL) | MIC against 96 strains of P. aeruginosa MICrange (P. aeruginosa; [2]): 0.25 - 2 µg(mL) | MIC (P. aeruginosa; P. aeruginosa KUB No. 579, AR Bank # 447): 1 µg/mL | MIC (P. aeruginosa; P. aeruginosa KUB No. 5083, AR Bank # 250): 1 µg/mL | MIC (P. aeruginosa; P. aeruginosa KUB No. 5551, AR Bank # 54): 2 µg/mL | MIC (P. aeruginosa; P. aeruginosa KUB No. 5561, AR Bank # 64): 1 µg/mL | MIC (P. aeruginosa; P. aeruginosa KUB No. 5587, AR Bank # 90): 1 µg/mL | MIC (P. aeruginosa; P. aeruginosa KUB No. 5589, AR Bank # 92): 1 µg/mL | MIC (P. aeruginosa; P. aeruginosa KUB No. 5591, AR Bank # 94): 1 µg/mL | MIC (P. aeruginosa; P. aeruginosa KUB No. 5592, AR Bank # 95): 1 µg/mL | MIC (P. aeruginosa; P. aeruginosa KUB No. 5597, AR Bank # 100): 1 µg/mL | MIC (P. aeruginosa; P. aeruginosa KUB No. 5600, AR Bank # 103): 1 µg/mL | MIC (P. aeruginosa; P. aeruginosa KUB No. 5602, AR Bank # 105): 1 µg/mL | MIC (P. aeruginosa; P. aeruginosa KUB No. 5605, AR Bank # 108): 1 µg/mL | MIC (P. aeruginosa; P. aeruginosa KUB No. 5607, AR Bank # 110): 1 µg/mL | MIC (P. aeruginosa; P. aeruginosa KUB No. 5608, AR Bank # 111): 1 µg/mL | MIC (P. aeruginosa; P. aeruginosa KUB No. 5662, AR Bank # 229): 1 µg/mL | MIC (P. aeruginosa; P. aeruginosa KUB No. 5663, AR Bank # 230): 1 µg/mL | MIC (P. aeruginosa; P. aeruginosa KUB No. 5664, AR Bank # 231): 1 µg/mL | MIC (P. aeruginosa; P. aeruginosa KUB No. 5665, AR Bank # 232): 1 µg/mL | MIC (P. aeruginosa; P. aeruginosa KUB No. 5666, AR Bank # 23): 1 µg/mL | MIC (P. aeruginosa; P. aeruginosa KUB No. 5667, AR Bank # 234): 1 µg/mL
